The record followed here is patent publication US20240216397A1, “COMPOSITION FOR AMELIORATING SKIN TISSUE ABNORMALITY” (Kyoto University, priority 2021, published 2024).

Structures are written as SMILES. Structures can show the parent of a compound that is named as a salt.

For experiment [1], the system named is atopic dermatitis-like skin inflammation induced by repeated applications of MC903. Nature of the experiment: Model mice of MC903-induced atopic dermatitis-like skin inflammation: auricle appearance and auricular thickness. The conditions noted are these: 10 μL of 5 mM topically to each side of left auricle daily for 10 days, MC903 every other day; vs MC903 + EtOH. Format: in vivo, C57BL/6N female mice. The procedure: (§1) The effect of KUS121 application on atopic dermatitis was evaluated. For modeling atopic dermatitis, model mice of atopic dermatitis-like skin inflammation induced by repeated applications of MC903, an active vitamin D3 analog, were used. Eight-week-old C57BL/6N female mice were used (purchased from SHIMIZU Laboratory Supplies Co., Ltd.). Under isoflurane anesthesia, the following substances were applied for 10 days. After 10 μL of 5 mM KUS121 (solvent: 90% EtOH) or 90% EtOH was applied to each side of the left auricle, 10 μL of 100 μM MC903 (solvent: 100% EtOH) was applied on each side. From the start of the substance application, KUS121 or 90% EtOH was applied daily and MC903 was applied every other day. The auricular thicknesses were measured immediately before the substance application using a constant pressured thickness measuring instrument (Tecloc). The thicknesses were measured immediately before the first substance application and then every other day for ten days. In addition, the effect of KUS121 alone was evaluated by the following substance applications. To each side of the left auricle 10 μL of 5 mM KUS121 was applied daily and to each side of the right auricle 10 μL of 90% EtOH was applied daily. The auricular thicknesses were measured immediately before the first substance application and then every other day for ten days. A blood sample was collected from a buccal vein on day 11 from the first substance application (14 hours after the substance application on day 10). The blood was allowed to stand at room temperature for at least 30 minutes, the serum was separated by centrifugation (1500×g, 10 minutes), and the serum levels of immunoglobulins (IgE and IgG1) was measured using Elisa kit (Bethyl Laboratories).
The experiments were performed as in Example 1, except for KUS187 was used in place of KUS121. The appearance of the auricle was observed and the auricular thicknesses were measured. […] The mice applied with MC903 and treated with EtOH had skin redness, desquamation, and crust as well as increased auricular thickness.

The test system of the next experiment is IgE. Nature of the experiment: Serum IgE level (Elisa kit) in MC903 model mice. The experiment is classed as in vivo, C57BL/6N female mice. The conditions noted are these: serum on day 11; 5 mM topical daily + MC903; vs MC903 + EtOH. On the procedure: as §1, with “From the start of the substance application, KUS121 or 90% EtOH was applied daily and MC903 was applied every other day.” left out, “To each side of the left auricle 10 μL of 5 mM KUS121 was applied daily and to each side of the right auricle 10 μL of 90% EtOH was applied daily.” left out, “A blood sample was collected from a buccal vein on day 11 from the first substance application (14 hours after the substance application on day 10).” left out

Another experiment relates to IgG1. Nature of the experiment: Serum IgG1 level (Elisa kit) in MC903 model mice. The experiment is classed as in vivo, C57BL/6N female mice. The conditions noted are these: serum on day 11; 5 mM topical daily + MC903; vs MC903 + EtOH. On the procedure:
as §1, with “From the start of the substance application, KUS121 or 90% EtOH was applied daily and MC903 was applied every other day.” left out, “To each side of the left auricle 10 μL of 5 mM KUS121 was applied daily and to each side of the right auricle 10 μL of 90% EtOH was applied daily.” left out, “A blood sample was collected from a buccal vein on day 11 from the first substance application (14 hours after the substance application on day 10).” left out

Experiment [2] has as its system epidermal thickening and infiltration of inflammatory cells into the dermis. Nature of the experiment: HE staining of auricular sections of MC903 model mice. Format: in vivo, C57BL/6N female mice. To be noted: auricular sections day 11; 5 mM topical daily + MC903; vs MC903 + EtOH. On the procedure: (§2) After the blood collection in Example 1, the mice were sacrificed by cervical dislocation and auricular sections were collected. Some of the auricular sections were paraffin-embedded and other sections were served for RNA extraction. The paraffin-embedded sections were observed by hematoxylin-eosin (HE) staining. RNA was extracted from the sections and cDNA was synthesized. The expression levels of various genes were analyzed by real-time PCR with SYBR Green using each cDNA as a template. Gapdh was used as an internal standard.

Another experiment relates to Keratin 6a (Krt6a). Nature of the experiment: Krt6a mRNA expression in auricular sections, real-time PCR. Format: in vivo, C57BL/6N female mice. The conditions noted are these: auricular sections day 11; Gapdh internal standard; 5 mM topical + MC903; vs MC903 + EtOH. The procedure: as §2
Background: Real-time PCR tracks product formation cycle by cycle.

In the next experiment the test system is Filaggrin (Flg). Nature of the experiment: Flg mRNA expression in auricular sections, real-time PCR. Format: in vivo, C57BL/6N female mice. To be noted: auricular sections day 11; Gapdh internal standard; 5 mM topical + MC903; vs MC903 + EtOH and EtOH alone. On the procedure: as §2
For the next experiment, the system named is skin barrier function. Nature of the experiment: Transepidermal water loss and auricular thickness in MC903-applied mice (skin barrier function). The experiment is classed as in vivo, C57BL6/N female mice. To be noted: 5 mM topical daily for 12 days + MC903 every other day; vs MC903 + EtOH. The procedure: The effect of KUS121 application on skin barrier function was evaluated by determining transepidermal water loss. Six- to eight-week-old C57BL6/N female mice (purchased from Oriental Bioservice, Inc) were used. The mice were anesthetized by subcutaneously injecting 150 μL of three types of mixed anesthesia (1 mg/mL medetomidine hydrochloride, 5 mg/mL mitazolam, 5 mg/mL butorphanol tartrate, solvent: sterile distilled water). Under anesthesia the following substances were applied for 12 days. For each mouse 10 μL of 5 mM KUS121 was applied to each side of the left auricle and 10 μL of 90% EtOH was applied to each side of the right auricle. Some mice were additionally applied with 10 μL of 100 μM MC903 on each side of both auricles every other day; KUS121 or 90% EtOH was applied at first and then MC903 was applied. The levels of transepidermal water loss was determined using APO SCAN AS-VT100 (Asahi Techno Lab. ltd.). The auricular thicknesses were measured immediately before the first substance application and daily for subsequent 12 days. The levels of transepidermal water loss were determined on days 0, 2, 4, 6, 8, 10, 11, and 12 immediately before the substance applications in each day.

Experiment [3] deals with itching in atopic dermatitis-like skin inflammation induced by MC903. Nature of the experiment: Itching (scratching behavior) and auricular thickness in MC903 model mice, treatment started on day 6. Format: in vivo, C57BL/6N female mice. On the procedure:
The effect of KUS121 application on itching was evaluated. For modeling itching, model mice of atopic dermatitis-like skin inflammation induced by repeated applications of MC903 were used. Eight-week-old C57BL/6N female mice (purchased from SHIMIZU Laboratory Supplies Co., Ltd.) were used. Under isoflurane anesthesia, the following substances were applied for 15 days. 10 μL of 100 μM MC903 was applied on each side of both auricles every three days. To each side of the left auricle 10 μL of 5 mM KUS121 was applied daily and to each side of the right auricle 10 μL of 90% EtOH was applied daily. The application of KUS121 or 90% EtOH was started on day 6 from the first substance application; KUS121 or 90% EtOH was applied at first and then MC903 was applied. On day 12 from the start of the treatment, 1 to 2 hours after the substance application, five mice awakened from anesthesia were left in a shooting box (SHINANO manufacturing CO., LTD, W 25×D 25×H 30 cm) and their behavior was recorded from above using a video camera (Victor). Scratching behavior was evaluated by counting the total number of ear contacts by the front paws and determining the total scratching time by the hind paws within one hour from the start of the recording. The data of the five mice were summed and the total values were adopted as the results.

For another experiment, the system named is KLK7. Nature of the experiment: KLK7 mRNA expression in auricular sections of MC903 model mice. Format: in vivo, C57BL/6N female mice. To be noted: mice treated as in Example 1; 5 mM topical + MC903; vs MC903 + EtOH. On the procedure: as §1, with “From the start of the substance application, KUS121 or 90% EtOH was applied daily and MC903 was applied every other day.” left out, “To each side of the left auricle 10 μL of 5 mM KUS121 was applied daily and to each side of the right auricle 10 μL of 90% EtOH was applied daily.” left out, “A blood sample was collected from a buccal vein on day 11 from the first substance application (14 hours after the substance application on day 10).” left out, “Laboratories). […]” for “Laboratories).”

Experiment [4] relates to psoriasis induced by repeated applications of 5% imiquimod cream. Nature of the experiment: Model mice of imiquimod-induced psoriasis: auricular thickness. The experiment is classed as in vivo, C57BL6/N female mice. To be noted: 5 mM topical daily for 6 or 18 days + 5% imiquimod cream; vs imiquimod + EtOH. On the procedure:
The effect of KUS121 application on psoriasis was evaluated. For modeling psoriasis, model mice of psoriasis induced by repeated applications of 5% imiquimod cream was used. Six- to eight-week-old C57BL6/N female mice (purchased from Oriental Bioservice, Inc) were used. The mice were anesthetized by subcutaneously injecting 150 μL of three types of mixed anesthesia. Under anesthesia the following substances were applied for 6 or 18 days. After 10 μL of 5 mM KUS121 or 90% EtOH was applied to each side of the left auricle, 5 mg of 5% imiquimod cream (MOCHIDA PHARMACEUTICAL CO., LTD.) was applied on each side. KUS121 or 90% EtOH was applied daily and imiquimod cream was applied on days 0, 2, 4, 7, 9, 11, 14, and 16. The auricular thicknesses were measured immediately before the substance applications.

Experiment [5] deals with irritant contact dermatitis induced by sodium dodecyl sulfate (SDS). Nature of the experiment: Model mice of SDS-induced irritant contact dermatitis: auricular thickness. The experiment is classed as in vivo, C57BL6/J male mice. The conditions noted are these: 5 mM topical daily for 4 days + 4% SDS daily; vs SDS + EtOH. On the procedure:
The effect of KUS121 application on irritant contact dermatitis was evaluated. For modeling irritant contact dermatitis, model mice of irritant contact dermatitis induced by sodium dodecyl sulfate (SDS) was used. Ten-week-old C57BL6/J male mice (purchased from Oriental Bioservice, Inc) were used. The mice were anesthetized by subcutaneously injecting 150 μL of three types of mixed anesthesia. Under anesthesia the following substances were applied for 4 days. After 10 μL of 5 mM KUS121 or 90% EtOH was applied to each side of the left auricle, 10 μL of 4% SDS was applied on each side. The substances were applied daily and the auricular thicknesses were measured immediately before the substance applications.

Consider `Cc1cc(F)ccc1-c1ccc(/N=N/c2cc(S(=O)(=O)O)c3ccccc3c2N)cn1` [KUS121, 4-amino-3-[6-(4-fluoro-2-methylphenyl)pyridine-3-ylazo]naphthalene-1-sulfonic acid sodium salt], for which the auricular thickness entry is “less increased auricular thickness” in experiment [1], “increases were suppressed” with skin barrier function, “No difference” in [4] and “the increase was suppressed” in experiment [5]. In experiment [1], the “skin lesion (skin redness, desquamation, crust), appearance of auricle” value is listed as “less skin lesion”. For the same compound, the “blood level of IgE” value in the experiment with IgE was “lower”. The “blood level of IgG1” value with IgG1 is reported as “lower”. The “lesions in HE staining (epidermal thickening, infiltration of inflammatory cells such as eosinophils into the dermis)” value in experiment [2] was “suppressed more strongly”. For the same compound, the “Krt6a expression (messenger RNA)” value in the experiment on Keratin 6a (Krt6a) was “weaker”. Moreover, the “Flg expression (messenger RNA)” value in the experiment with Filaggrin (Flg) is given as “elevated”. Besides, the “transepidermal water loss from auricular skin” value in the experiment on skin barrier function is listed as “increases were suppressed”. The “scratching behavior (number of ear contacts by front paws, scratching time by hind paws within one hour)” value in experiment [3] (day 12, 5 mM topical daily from day 6, MC903 every three days, vs MC903 + EtOH) was “less”. Moreover, the “increase of auricular thickness” value in experiment [3] (treatment started after 6 days from the start of MC903 application, 5 mM topical daily) is “suppressed”. Further, the “KLK7 expression (messenger RNA)” value in the experiment on KLK7 was “the increase was suppressed”.

For the compound `CCCCOc1c(C=O)cc(C)cc1-c1ccc(/N=N/c2cc(S(=O)(=O)O)c3ccccc3c2N)cn1` [KUS187, 4-amino-3-[6-(3-formyl-2-butoxy-5-methylphenyl)pyridine-3-ylazo] naphthalene-1-sulfonic acid sodium salt], in [1], the auricular thickness entry is listed as “less increased auricular thickness” and the “skin lesion (skin redness, desquamation, crust), appearance of auricle” value is recorded as “less skin lesion”.
